Measured values taken from patent publication US9914736B2, “TrKA kinase inhibitors, compositions and methods thereof” (Merck Sharp & Dohme Corp., priority 2014, dated 2018).

Target: human TrkA receptor (Homo sapiens (Human), UniProt P04629)
Experiment: DiscoverX PathHunter TrkA functional assay
Format: cell-based
Conditions: U2OS cells expressing human TrkA-ProLink, Shc1-EA and p75NTR; compound 1 h, then NGF at ~80% of maximal response for 3 h; luminescence

Sequence of human TrkA receptor (P04629 33-796): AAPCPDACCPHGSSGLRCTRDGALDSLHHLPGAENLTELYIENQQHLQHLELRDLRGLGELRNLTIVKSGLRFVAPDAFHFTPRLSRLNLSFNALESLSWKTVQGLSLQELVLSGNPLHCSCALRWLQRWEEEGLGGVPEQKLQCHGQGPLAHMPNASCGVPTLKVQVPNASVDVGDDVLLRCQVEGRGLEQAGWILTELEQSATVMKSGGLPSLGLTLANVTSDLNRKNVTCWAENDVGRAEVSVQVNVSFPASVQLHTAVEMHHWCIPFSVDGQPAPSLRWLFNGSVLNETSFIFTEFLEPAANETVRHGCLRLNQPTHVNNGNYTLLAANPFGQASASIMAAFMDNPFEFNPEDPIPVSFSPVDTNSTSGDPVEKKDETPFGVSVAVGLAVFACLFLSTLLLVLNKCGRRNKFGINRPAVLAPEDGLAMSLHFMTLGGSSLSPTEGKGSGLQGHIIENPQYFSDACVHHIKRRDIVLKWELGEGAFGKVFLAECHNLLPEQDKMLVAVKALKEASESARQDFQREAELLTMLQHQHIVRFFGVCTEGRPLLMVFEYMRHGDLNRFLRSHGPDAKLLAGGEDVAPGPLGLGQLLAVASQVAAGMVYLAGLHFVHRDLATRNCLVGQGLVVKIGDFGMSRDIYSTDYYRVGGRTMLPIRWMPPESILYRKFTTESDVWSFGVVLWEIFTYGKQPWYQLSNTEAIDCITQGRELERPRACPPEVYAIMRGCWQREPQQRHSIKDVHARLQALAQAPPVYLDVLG

Structure (SMILES)	IC50 [µM]
CC(O)c1cc(NC(=O)c2cc(-c3ncccn3)c(C(F)(F)F)cc2F)n(-c2ccc(F)cc2)n1 (single isomer, unassigned) [Compound 99, (S or R)-2-fluoro-N-(1-(4-fluorophenyl)-3-(1-hydroxyethyl)-1H-pyrazol-5-yl)-5-(pyrimidin-2-yl)-4-(trifluoromethyl)benzamide]	0.016
Cc1nc(-c2ccccc2)c(NC(=O)c2ccc(C(F)(F)F)cc2F)s1 [Compound 1, 2-fluoro-N-(2-methyl-4-phenyl-1,3-thiazol-5-yl)-4-(trifluoromethyl)benzamide]	0.78
O=C(NC1CC1)c1cc(NC(=O)c2ccc(C(F)(F)F)cc2Cl)n(-c2ccccc2)n1 [Compound 2, 5-({[2-chloro-4-(trifluoromethyl)phenyl]carbonyl}amino)-N-cyclopropyl-1-phenyl-1H-pyrazole-3-carboxamide]	0.06
NC(=O)c1ccc(-c2cc(NC(=O)c3ccc(C(F)(F)F)cc3Cl)n(-c3ccccc3)n2)nc1 [Compound 4, 6-[5-({[2-chloro-4-(trifluoromethyl)phenyl]carbonyl}amino)-1-phenyl-1H-pyrazol-3-yl]pyridine-3-carboxamide]	0.048
Cc1cc(-n2nc(C(=O)N(C)C)cc2NC(=O)c2ccc(C(F)(F)F)c(-c3ccn(C)n3)c2)[nH]n1 [Compound 7, N,N,5′-trimethyl-5-({[3-(1-methyl-1H-pyrazol-3-yl)-4-(trifluoromethyl)phenyl]carbonyl}amino)-2′H-1,3′-bipyrazole-3-carboxamide]	0.032
Cc1cc(-n2nc(-c3cnn(C)c3)cc2NC(=O)c2ccc(C(F)(F)F)c(-c3cccnc3)c2)n[nH]1 [Compound 8, N-(1″,5-dimethyl-1H,1″H-3,1′:3′,4″-terpyrazol-5′-yl)-3-pyridin-3-yl-4-(trifluoromethyl)benzamide]	2.1
O=C(Nc1cc(-c2ccc(=O)[nH]n2)nn1-c1ccccc1)c1ccc(C(F)(F)F)cc1Cl [Compound 10, 2-chloro-N-[3-(6-oxo-1,6-dihydropyridazin-3-yl)-1-phenyl-1H-pyrazol-5-yl]-4-(trifluoromethyl)benzamide]	0.29
Cn1ccc(-c2cc(C(=O)Nc3c(-c4ccccc4)ncn3C)ccc2C(F)(F)F)n1 [Compound 12, N-(1-methyl-4-phenyl-1H-imidazol-5-yl)-3-(1-methyl-1H-pyrazol-3-yl)-4-(trifluoromethyl)benzamide]	0.019
Cc1nc(-c2ccccc2)c(NC(=O)c2ccc(C(F)(F)F)c(-c3ccn(C)n3)c2)[nH]1 [Compound 13, N-(2-methyl-4-phenyl-1H-imidazol-5-yl)-3-(1-methyl-1H-pyrazol-3-yl)-4-(trifluoromethyl)benzamide]	0.038
Cc1nc(-c2ccccc2)c(NC(=O)c2ccc(C(F)(F)F)c(-c3ccn(C)n3)c2)n1C [Compound 14, N-(1,2-dimethyl-4-phenyl-1H-imidazol-5-yl)-3-(1-methyl-1H-pyrazol-3-yl)-4-(trifluoromethyl)benzamide]	0.02
Cc1nc(NC(=O)c2ccc(C(F)(F)F)c(-c3ccn(C)n3)c2)n(-c2ccccc2)n1 [Compound 15, N-(3-methyl-1-phenyl-1H-1,2,4-triazol-5-yl)-3-(1-methyl-1H-pyrazol-3-yl)-4-(trifluoromethyl)benzamide]	0.15
Cn1ccc(-c2cc(C(=O)Nc3cc(-c4n[nH]c(=O)n4C)nn3-c3ccccc3)ccc2C(F)(F)F)n1 [Compound 16, N-[3-(4-methyl-5-oxo-4,5-dihydro-1H-1,2,4-triazol-3-yl)-1-phenyl-1H-pyrazol-5-yl]-3-(1-methyl-1H-pyrazol-3-yl)-4-(trifluoromethyl)benzamide]	0.046
Cn1ccc(-c2cc(C(=O)Nc3oncc3-c3ccccc3)ccc2C(F)(F)F)n1 [Compound 17, 3-(1-methyl-1H-pyrazol-3-yl)-N-(4-phenylisoxazol-5-yl)-4-(trifluoromethyl)benzamide]	0.17
Cn1ccc(-c2cc(C(=O)Nc3cn[nH]c3-c3ccccc3)ccc2C(F)(F)F)n1 [Compound 18, 3-(1-methyl-1H-pyrazol-3-yl)-N-(5-phenyl-1H-pyrazol-4-yl)-4-(trifluoromethyl)benzamide]	0.018
Cn1ccc(-c2cc(C(=O)Nc3snnc3-c3ccccc3)ccc2C(F)(F)F)n1 [Compound 19, 3-(1-methyl-1H-pyrazol-3-yl)-N-(4-phenyl-1,2,3-thiadiazol-5-yl)-4-(trifluoromethyl)benzamide]	2.8
Cn1ccc(-c2cc(C(=O)Nc3cc(-c4ccccc4)nn3C)ccc2C(F)(F)F)n1 [Compound 20, N-(1-methyl-3-phenyl-1H-pyrazol-5-yl)-3-(1-methyl-1H-pyrazol-3-yl)-4-(trifluoromethyl)benzamide]	1.4
Cc1c(Cl)cc(C(=O)Nc2cc(-c3ccncc3)nn2-c2ccccc2)cc1Cl [Compound 23, 3,5-dichloro-4-methyl-N-(1-phenyl-3-pyridin-4-yl-1H-pyrazol-5-yl)benzamide]	0.67
O=C(Nc1cc(-c2ccncc2)nn1-c1ccccc1)c1ccc(C(F)(F)F)c(-n2cccn2)c1 [Compound 24, N-(1-phenyl-3-pyridin-4-yl-1H-pyrazol-5-yl)-3-(1H-pyrazol-1-yl)-4-(trifluoromethyl)benzamide]	0.021
O=C(Nc1cc(-c2ccncc2)nn1-c1ccc(F)cc1)c1ccc(C(F)(F)F)c(-c2ncns2)c1 [Compound 26, N-[1-(4-fluorophenyl)-3-pyridin-4-yl-1H-pyrazol-5-yl]-3-(1,2,4-thiadiazol-5-yl)-4-(trifluoromethyl)benzamide]	0.35
Cc1nc(-c2cc(C(=O)Nc3cc(-c4ccncc4)nn3-c3ccc(F)cc3)ccc2C(F)(F)F)no1 [Compound 29, N-[1-(4-fluorophenyl)-3-pyridin-4-yl-1H-pyrazol-5-yl]-3-(5-methyl-1,2,4-oxadiazol-3-yl)-4-(trifluoromethyl)benzamide]	0.53

Stronger by IC50, values ahead:

IC50 [µM]	Structure (SMILES)
0.012	CC(O)c1ccc(-c2cc(NC(=O)c3cc(-c4ncccn4)c(C(F)(F)F)cc3F)n(-c3ccc(F)cc3)n2)nc1 (single isomer, unassigned) [Compound 100, (S or R)-2-fluoro-N-(1-(4-fluorophenyl)-3-(5-(1-hydroxyethyl)pyridin-2-yl)-1H-pyrazol-5-yl)-5-(pyrimidin-2-yl)-4-(trifluoromethyl)benzamide]
0.01	Cc1cc(-n2nc(C(=O)NC3CN(C)C3)cc2NC(=O)c2ccc(C(F)(F)F)c(-c3ccn(C)n3)c2)[nH]n1 [Compound 27, 5′-methyl-N-(1-methylazetidin-3-yl)-5-({[3-(1-methyl-1H-pyrazol-3-yl)-4-(trifluoromethyl)phenyl]carbonyl}amino)-2′H-1,3′-bipyrazole-3-carboxamide]
0.0097	Cn1ccc(-c2cc(C(=O)Nc3cc(-c4ccncc4)nn3-c3ccc(F)c(F)c3)ccc2C(F)(F)F)n1 [Compound 9, N-[1-(3,4-difluorophenyl)-3-pyridin-4-yl-1H-pyrazol-5-yl]-3-(1-methyl-1H-pyrazol-3-yl)-4-(trifluoromethyl)benzamide]
0.0066	Cn1ccc(-c2cc(C(=O)Nc3cc(Cc4ccc(=O)[nH]n4)nn3-c3ccccc3)ccc2C(F)(F)F)n1 [Compound 28, 3-(1-methyl-1H-pyrazol-3-yl)-N-{3-[(6-oxo-1,6-dihydropyridazin-3-yl)methyl]-1-phenyl-1H-pyrazol-5-yl}-4-(trifluoromethyl)benzamide]
0.0056	Cc1cc(-n2nc(CC(=O)Nc3ccccn3)cc2NC(=O)c2ccc(C(F)(F)F)c(-c3ccn(C)n3)c2)[nH]n1 [Compound 22, N-{5′-methyl-3-[2-oxo-2-(pyridin-2-ylamino)ethyl]-2′H-1,3′-bipyrazol-5-yl}-3-(1-methyl-1H-pyrazol-3-yl)-4-(trifluoromethyl)benzamide]
0.0055	Cn1ccc(-c2cc(C(=O)Nc3cc(-c4ccc(=O)[nH]n4)nn3-c3ccccc3)ccc2C(F)(F)F)n1 [Compound 11, 3-(1-methyl-1H-pyrazol-3-yl)-N-[3-(6-oxo-1,6-dihydropyridazin-3-yl)-1-phenyl-1H-pyrazol-5-yl]-4-(trifluoromethyl)benzamide]
0.0054	Cc1csc(-c2cc(C(=O)Nc3cc(C)nn3-c3ccccc3)ccc2C(F)(F)F)n1 [Compound 3, N-(3-methyl-1-phenyl-1H-pyrazol-5-yl)-3-(4-methyl-1,3-thiazol-2-yl)-4-(trifluoromethyl)benzamide]
0.0027	Cc1csc(-c2cc(C(=O)Nc3cc(-c4ccncc4)nn3-c3ccccc3)ccc2Cl)n1 [Compound 21, 4-chloro-3-(4-methyl-1,3-thiazol-2-yl)-N-(1-phenyl-3-pyridin-4-yl-1H-pyrazol-5-yl)benzamide]
0.0017	Cc1csc(-c2cc(C(=O)Nc3cc(-c4ccccn4)nn3-c3cc(C)[nH]n3)ccc2C(F)(F)F)n1 [Compound 6, N-(5′-methyl-3-pyridin-2-yl-1′H-1,3′-bipyrazol-5-yl)-3-(4-methyl-1,3-thiazol-2-yl)-4-(trifluoromethyl)benzamide]
0.0017	Cc1cc(-n2nc(C(=O)NCc3ccns3)cc2NC(=O)c2ccc(C(F)(F)F)c(-c3ccn(C)n3)c2)[nH]n1 [Compound 25, N-(isothiazol-5-ylmethyl)-5′-methyl-5-({[3-(1-methyl-1H-pyrazol-3-yl)-4-(trifluoromethyl)phenyl]carbonyl}amino)-2′H-1,3′-bipyrazole-3-carboxamide]
0.001	CC(O)c1cnc(-c2cc(NC(=O)c3cc(-c4ccn(C)n4)c(C(F)(F)F)cc3F)n(-c3ccc(F)cc3)n2)nc1 (single isomer, unassigned) [Compound 107, (S or R)-2-fluoro-N-(1-(4-fluorophenyl)-3-(5-(1-hydroxyethyl)pyrimidin-2-yl)-1H-pyrazol-5-yl)-5-(1-methyl-1H-pyrazol-3-yl)-4-(trifluoromethyl)benzamide]
0.00085	Cc1csc(-c2cc(C(=O)Nc3cc(-c4cnn(C)c4)nn3-c3cc(C)[nH]n3)ccc2C(F)(F)F)n1 [Compound 5, N-(1″,5-dimethyl-1H,1″H-3,1′:3′,4″-terpyrazol-5′-yl)-3-(4-methyl-1,3-thiazol-2-yl)-4-(trifluoromethyl)benzamide]
